Assays:
[1] = system: Liver; experiment: Biodistribution in rat 9L tumor bearing fisher rat liver at 40 to 50 uCi, iv after 15 mins; type: ADME, organism-based; conditions: in vivo, 0.25 h
[2] = system: Bone; experiment: Biodistribution in rat 9L tumor bearing fisher rat bone at 40 to 50 uCi, iv after 30 mins; type: ADME, organism-based, Bone element; conditions: in vivo, 0.5 h
[3] = Biodistribution in rat 9L tumor bearing fisher rat tumor at 40 to 50 uCi, iv after 15 mins; type: ADME, organism-based, Neoplasm; conditions: in vivo, 0.25 h
[4] = system: Lung; experiment: Biodistribution in rat 9L tumor bearing fisher rat lung at 40 to 50 uCi, iv after 60 mins; type: ADME, organism-based; conditions: in vivo, 1 h
[5] = system: Pancreas; experiment: Biodistribution in rat 9L tumor bearing fisher rat pancreas at 40 to 50 uCi, iv after 15 mins; type: ADME, organism-based; conditions: in vivo, 0.25 h
[6] = system: Liver; experiment: Biodistribution in rat 9L tumor bearing fisher rat liver at 40 to 50 uCi, iv after 60 mins; type: ADME, organism-based; conditions: in vivo, 1 h
[7] = system: Heart; experiment: Biodistribution in rat 9L tumor bearing fisher rat heart at 40 to 50 uCi, iv after 15 mins; type: ADME, organism-based; conditions: in vivo, 0.25 h
[8] = system: Kidney; experiment: Biodistribution in rat 9L tumor bearing fisher rat kidney at 40 to 50 uCi, iv after 15 mins; type: ADME, organism-based; conditions: in vivo, 0.25 h
[9] = system: Muscle tissue; experiment: Biodistribution in rat 9L tumor bearing fisher rat muscle at 40 to 50 uCi, iv after 30 mins; type: ADME, organism-based; conditions: in vivo, 0.5 h
[10] = system: Blood; experiment: Biodistribution in rat 9L tumor bearing fisher rat blood at 40 to 50 uCi, iv after 30 mins; type: ADME, organism-based; conditions: in vivo, 0.5 h
[11] = system: Kidney; experiment: Biodistribution in rat 9L tumor bearing fisher rat kidney at 40 to 50 uCi, iv after 60 mins; type: ADME, organism-based; conditions: in vivo, 1 h
[12] = system: Kidney; experiment: Biodistribution in rat 9L tumor bearing fisher rat kidney at 40 to 50 uCi, iv after 120 mins; type: ADME, organism-based; conditions: in vivo, 2 h
[13] = system: Brain; experiment: Biodistribution in rat 9L tumor bearing fisher rat brain at 40 to 50 uCi, iv after 15 mins; type: ADME, organism-based; conditions: in vivo, 0.25 h
[14] = system: Brain; experiment: Biodistribution in rat 9L tumor bearing fisher rat brain at 40 to 50 uCi, iv after 120 mins; type: ADME, organism-based; conditions: in vivo, 2 h
[15] = Biodistribution in rat 9L tumor bearing fisher rat tumor at 40 to 50 uCi, iv after 30 mins; type: ADME, organism-based, Neoplasm; conditions: in vivo, 0.5 h
[16] = system: Pancreas; experiment: Biodistribution in rat 9L tumor bearing fisher rat pancreas at 40 to 50 uCi, iv after 60 mins; type: ADME, organism-based; conditions: in vivo, 1 h
[17] = system: Liver; experiment: Biodistribution in rat 9L tumor bearing fisher rat liver at 40 to 50 uCi, iv after 30 mins; type: ADME, organism-based; conditions: in vivo, 0.5 h
[18] = system: Heart; experiment: Biodistribution in rat 9L tumor bearing fisher rat heart at 40 to 50 uCi, iv after 30 mins; type: ADME, organism-based; conditions: in vivo, 0.5 h
[19] = Biodistribution in rat 9L tumor bearing fisher rat tumor at 40 to 50 uCi, iv after 120 mins; type: ADME, organism-based, Neoplasm; conditions: in vivo, 2 h
[20] = Ratio of drug uptake in tumor to brain in rat 9L tumor bearing fisher rat […] at 40 to 50 uCi, iv after 120 mins; type: ADME, organism-based; conditions: in vivo, 2 h
[21] = system: Brain; experiment: Biodistribution in rat 9L tumor bearing fisher rat brain at 40 to 50 uCi, iv after 60 mins; type: ADME, organism-based; conditions: in vivo, 1 h
[22] = Biodistribution in rat 9L tumor bearing fisher rat tumor at 40 to 50 uCi, iv after 60 mins; type: ADME, organism-based, Neoplasm; conditions: in vivo, 1 h
[23] = system: Blood; experiment: Biodistribution in rat 9L tumor bearing fisher rat blood at 40 to 50 uCi, iv after 60 mins; type: ADME, organism-based; conditions: in vivo, 1 h
[24] = system: Brain; experiment: Biodistribution in rat 9L tumor bearing fisher rat brain at 40 to 50 uCi, iv after 30 mins; type: ADME, organism-based; conditions: in vivo, 0.5 h
[25] = system: Lung; experiment: Biodistribution in rat 9L tumor bearing fisher rat lung at 40 to 50 uCi, iv after 15 mins; type: ADME, organism-based; conditions: in vivo, 0.25 h
[26] = system: Spleen; experiment: Biodistribution in rat 9L tumor bearing fisher rat spleen at 40 to 50 uCi, iv after 30 mins; type: ADME, organism-based; conditions: in vivo, 0.5 h
[27] = system: Lung; experiment: Biodistribution in rat 9L tumor bearing fisher rat lung at 40 to 50 uCi, iv after 120 mins; type: ADME, organism-based; conditions: in vivo, 2 h
[28] = system: Testes; experiment: Biodistribution in rat 9L tumor bearing fisher rat testes at 40 to 50 uCi, iv after 60 mins; type: ADME, organism-based, Testis; conditions: in vivo, 1 h
[29] = system: Testes; experiment: Biodistribution in rat 9L tumor bearing fisher rat testes at 40 to 50 uCi, iv after 15 mins; type: ADME, organism-based, Testis; conditions: in vivo, 0.25 h
[30] = system: Pancreas; experiment: Biodistribution in rat 9L tumor bearing fisher rat pancreas at 40 to 50 uCi, iv after 30 mins; type: ADME, organism-based; conditions: in vivo, 0.5 h
[31] = system: Blood; experiment: Biodistribution in rat 9L tumor bearing fisher rat blood at 40 to 50 uCi, iv after 120 mins; type: ADME, organism-based; conditions: in vivo, 2 h
[32] = system: Bone; experiment: Biodistribution in rat 9L tumor bearing fisher rat bone at 40 to 50 uCi, iv after 60 mins; type: ADME, organism-based, Bone element; conditions: in vivo, 1 h
[33] = Ratio of drug uptake in tumor to brain in rat 9L tumor bearing fisher rat […] at 40 to 50 uCi, iv after 60 mins; type: ADME, organism-based; conditions: in vivo, 1 h
[34] = Ratio of drug uptake in tumor to brain in rat 9L tumor bearing fisher rat […] at 40 to 50 uCi, iv after 30 mins; type: ADME, organism-based; conditions: in vivo, 0.5 h
[35] = system: Muscle tissue; experiment: Biodistribution in rat 9L tumor bearing fisher rat muscle at 40 to 50 uCi, iv after 15 mins; type: ADME, organism-based; conditions: in vivo, 0.25 h
[36] = system: Kidney; experiment: Biodistribution in rat 9L tumor bearing fisher rat kidney at 40 to 50 uCi, iv after 30 mins; type: ADME, organism-based; conditions: in vivo, 0.5 h
[37] = system: Testes; experiment: Biodistribution in rat 9L tumor bearing fisher rat testes at 40 to 50 uCi, iv after 30 mins; type: ADME, organism-based, Testis; conditions: in vivo, 0.5 h
[38] = system: Spleen; experiment: Biodistribution in rat 9L tumor bearing fisher rat spleen at 40 to 50 uCi, iv after 60 mins; type: ADME, organism-based; conditions: in vivo, 1 h
[39] = system: Heart; experiment: Biodistribution in rat 9L tumor bearing fisher rat heart at 40 to 50 uCi, iv after 120 mins; type: ADME, organism-based; conditions: in vivo, 2 h
[40] = Ratio of drug uptake in tumor to brain in rat 9L tumor bearing fisher rat […] at 40 to 50 uCi, iv after 15 mins; type: ADME, organism-based; conditions: in vivo, 0.25 h
[41] = system: Spleen; experiment: Biodistribution in rat 9L tumor bearing fisher rat spleen at 40 to 50 uCi, iv after 120 mins; type: ADME, organism-based; conditions: in vivo, 2 h
[42] = system: Lung; experiment: Biodistribution in rat 9L tumor bearing fisher rat lung at 40 to 50 uCi, iv after 30 mins; type: ADME, organism-based; conditions: in vivo, 0.5 h
[43] = system: Bone; experiment: Biodistribution in rat 9L tumor bearing fisher rat bone at 40 to 50 uCi, iv after 120 mins; type: ADME, organism-based, Bone element; conditions: in vivo, 2 h
[44] = system: Muscle tissue; experiment: Biodistribution in rat 9L tumor bearing fisher rat muscle at 40 to 50 uCi, iv after 120 mins; type: ADME, organism-based; conditions: in vivo, 2 h
[45] = system: Testes; experiment: Biodistribution in rat 9L tumor bearing fisher rat testes at 40 to 50 uCi, iv after 120 mins; type: ADME, organism-based, Testis; conditions: in vivo, 2 h
[46] = system: Heart; experiment: Biodistribution in rat 9L tumor bearing fisher rat heart at 40 to 50 uCi, iv after 60 mins; type: ADME, organism-based; conditions: in vivo, 1 h
[47] = system: Liver; experiment: Biodistribution in rat 9L tumor bearing fisher rat liver at 40 to 50 uCi, iv after 120 mins; type: ADME, organism-based; conditions: in vivo, 2 h
[48] = system: Blood; experiment: Biodistribution in rat 9L tumor bearing fisher rat blood at 40 to 50 uCi, iv after 15 mins; type: ADME, organism-based; conditions: in vivo, 0.25 h
[49] = system: Pancreas; experiment: Biodistribution in rat 9L tumor bearing fisher rat pancreas at 40 to 50 uCi, iv after 120 mins; type: ADME, organism-based; conditions: in vivo, 2 h
[50] = system: Bone; experiment: Biodistribution in rat 9L tumor bearing fisher rat bone at 40 to 50 uCi, iv after 15 mins; type: ADME, organism-based, Bone element; conditions: in vivo, 0.25 h
[51] = system: Muscle tissue; experiment: Biodistribution in rat 9L tumor bearing fisher rat muscle at 40 to 50 uCi, iv after 60 mins; type: ADME, organism-based; conditions: in vivo, 1 h
[52] = system: Spleen; experiment: Biodistribution in rat 9L tumor bearing fisher rat spleen at 40 to 50 uCi, iv after 15 mins; type: ADME, organism-based; conditions: in vivo, 0.25 h

Drug uptake [1]: 0.93 % ID/g
Drug uptake [2]: 0.17 % ID/g
Drug uptake [3]: 0.57 % ID/g
Drug uptake [4]: 0.8 % ID/g
Drug uptake [5]: 2.77 % ID/g
Drug uptake [6]: 0.41 % ID/g
Drug uptake [7]: 0.56 % ID/g
Drug uptake [8]: 4.87 % ID/g
Drug uptake [9]: 0.28 % ID/g
Drug uptake [10]: 0.29 % ID/g
Drug uptake [11]: 2 % ID/g
Drug uptake [12]: 0.89 % ID/g
Drug uptake [13]: 0.12 % ID/g
Drug uptake [14]: 0.1 % ID/g
Drug uptake [15]: 1.68 % ID/g
Drug uptake [16]: 2.65 % ID/g
Drug uptake [17]: 0.63 % ID/g
Drug uptake [18]: 0.44 % ID/g
Drug uptake [19]: 0.98 % ID/g
Ratio [20]: 10
Drug uptake [21]: 0.1 % ID/g
Drug uptake [22]: 1.24 % ID/g
Drug uptake [23]: 0.21 % ID/g
Drug uptake [24]: 0.13 % ID/g
Drug uptake [25]: 1.53 % ID/g
Drug uptake [26]: 0.48 % ID/g
Drug uptake [27]: 0.78 % ID/g
Drug uptake [28]: 0.14 % ID/g
Drug uptake [29]: 0.23 % ID/g
Drug uptake [30]: 2.91 % ID/g
Drug uptake [31]: 0.14 % ID/g
Drug uptake [32]: 0.14 % ID/g
Ratio [33]: 12
Ratio [34]: 13
Drug uptake [35]: 0.28 % ID/g
Drug uptake [36]: 3.44 % ID/g
Drug uptake [37]: 0.18 % ID/g
Drug uptake [38]: 0.3 % ID/g
Drug uptake [39]: 0.28 % ID/g
Ratio [40]: 5
Drug uptake [41]: 0.18 % ID/g
Drug uptake [42]: 1.13 % ID/g
Drug uptake [43]: 0.13 % ID/g
Drug uptake [44]: 0.17 % ID/g
Drug uptake [45]: 0.13 % ID/g
Drug uptake [46]: 0.3 % ID/g
Drug uptake [47]: 0.4 % ID/g
Drug uptake [48]: 0.48 % ID/g
Drug uptake [49]: 1.84 % ID/g
Drug uptake [50]: 0.27 % ID/g
Drug uptake [51]: 0.24 % ID/g
Drug uptake [52]: 0.64 % ID/g
Compound: N[C@@]1(C(=O)O)CCC[C@@H]1[18F] (racemic)
